Here are results for 2 compounds from US20220175761A1, “BI-LIGAND DRUG CONJUGATE AND USE THEREOF” (COHERENT BIOPHARMA (SUZHOU), LIMITED, priority 2019, published 2022).

SMILES strings stand for the structures. pIC50: −log10 of the molar value.

Experiment [1] concerns NCI-H226 (human lung cancer cells). In words: Inhibition of cell line proliferation, CCK8. The class given is cell-based. Conditions: NCI-H226, 68-72 hours, CCK8. The protocol: (§1) Experimental operations: LNCaP, SK-BR-3, NCI-H226, CFPAC-1 and PANC-1 cells were prepared in advance and counted; with a culture medium (IMDM+10% FBS+1× L-Glutamine+1×P/S), the cells LNCaP, SK-BR-3 and CFPAC-1 were diluted to 4×10^4 cells/ml, NCI-H226 was diluted to 2.0×10^4 cells/ml and PANC-1 was diluted to 3.0×10^4 cells/ml; the diluted cell solution was plated in 96-well plates at 100 μl/well; and negative control and blank control wells were set on each plate. After adherent cell culture overnight, the diluted samples to be tested were added at 50 μl/well. The plates were placed in an incubator at 37° C., 5% CO2 and cultured for 68-72 hours. To each well, 15 μl (10% of the liquid volume in a well) of a color developing solution from CCK8 was added; and the plates were incubated at 37° C. for 45-70 minutes and each plate was read at 450 nm on a microplate reader. The data was edited using SoftMax Pro and a 4-P fitting curve was plotted.
(§2) Experimental operations: NCI-H226, CFPAC-1 and MDA-MB-468 cells were prepared in advance and counted; MDA-MB-468 and CFPAC-1 cells were plated at a density of 2×10^4 cells/ml (100 μl/well) and NCI-H226 cells were plated at a density of 1×10^4 cells/ml (100 μl/well) in 96-well plates; and negative control and blank control wells were set on each plate. After adherent cell culture overnight, the diluted samples to be tested were added at 50 μl/well. The plates were placed in an incubator at 37° C., 5% CO2 and cultured for 68-72 hours. To each well, 15 μl (10% of the liquid volume in a well) of a color developing solution from CCK8 was added; and the plates were incubated at 37° C. for 45-70 minutes and each plate was read at 450 nm on a microplate reader. The data was edited using SoftMax Pro and a 4-P fitting curve was plotted.

The test system of experiment [2] is CFPAC-1 (human pancreatic cancer cells). In words: Inhibition of cell line proliferation, CCK8. The class given is cell-based. The following applies: CFPAC-1, 68-72 hours, CCK8. Here is the method: Experimental operations: PANC-1 and CFPAC-1 cells were prepared in advance, counted, and plated in 96-well cell culture plates at a cell density of 4×10^4 cells/ml (100 μl/well); negative control and blank control wells were set on each plate. After adherent cell culture overnight, the diluted samples to be tested were added at 50 μl/well. The plates were placed in an incubator at 37° C., 5% CO2 and cultured for 68-72 hours. To each well, 15 μl (10% of the liquid volume in a well) of a color developing solution from CCK8 was added; and the plates were incubated at 37° C. for 45-70 minutes and each plate was read at 450 nm on a microplate reader. The data was edited using SoftMax Pro and a 4-P fitting curve was plotted.
as §1
(§3) Experimental Operations: LNCaP, SK-BR-3, MDA-MB-468 and CFPAC-1 cells were prepared in advance and counted; with a culture medium (IMDM+10% FBS+1× L-Glutamine+1×P/S), the cells LNCaP, SK-BR-3, MDA-MB-468 and CFPAC-1 were diluted to 4×10^4 cells/ml; the diluted cell solution was plated in 96-well plates at 100 µl/well; and negative control and blank control wells were set on each plate. After adherent cell culture overnight, the diluted samples to be tested were added at 50 μl/well. The plates were placed in an incubator at 37° C., 5% CO2 and cultured for 68-72 hours. To each well, 15 μl (10% of the liquid volume in a well) of a color developing solution from CCK8 was added; and the plates were incubated at 37° C. for 45-70 minutes and each plate was read at 450 nm on a microplate reader. The data was edited using SoftMax Pro and a 4-P fitting curve was plotted.
as §3, with “Operations: LNCaP, MDA-MB-468, CFPAC-1 and PANC-1” for “Operations: LNCaP, SK-BR-3, MDA-MB-468 and CFPAC-1”, “CFPAC-1 and PANC-1 cells were” for “MDA-MB-468 and CFPAC-1 cells were”, “cells LNCaP, MDA-MB-468 and” for “cells LNCaP, SK-BR-3, MDA-MB-468 and”, “to 4×10^4 cells/ml, and PANC-1 was diluted to 3.0×10^4 cells/ml; the” for “to 4×10^4 cells/ml; the”, “at 100 μl/well; and negative” for “at 100 µl/well; and negative”
Experimental operations: NCI-H226, CFPAC-1 and MDA-MB-468 cells were prepared in advance and counted; MDA-MB-468 and CFPAC-1 cells were plated at a density of 2×10^4 cells/ml (100 μl/well) and NCI-H226 cells were plated at a density of 1×10^4 cells/ml (100 μl/well) in 96-well plates; and negative control and blank control wells were set on each plate. After adherent cell culture overnight, the diluted samples to be tested were added at 50 μl/well. The plates were placed in an incubator at 37° C., 5% CO2 and cultured for 68-72 hours. […]

Experiment [3] has as its system MDA-MB-468 (human breast cancer cells). In words: Inhibition of cell line proliferation, CCK8. It is filed as cell-based. The following applies: MDA-MB-468, 68-72 hours, CCK8. The protocol:
as §3
as §3, with “Operations: LNCaP, MDA-MB-468, CFPAC-1 and PANC-1” for “Operations: LNCaP, SK-BR-3, MDA-MB-468 and CFPAC-1”, “CFPAC-1 and PANC-1 cells were” for “MDA-MB-468 and CFPAC-1 cells were”, “cells LNCaP, MDA-MB-468 and” for “cells LNCaP, SK-BR-3, MDA-MB-468 and”, “to 4×10^4 cells/ml, and PANC-1 was diluted to 3.0×10^4 cells/ml; the” for “to 4×10^4 cells/ml; the”, “at 100 μl/well; and negative” for “at 100 µl/well; and negative”
as §2

In experiment [4] the test system is SCLC-21H. In words: Tumor growth inhibition of CR19428 in subcutaneous xenograft model (CDX). It is filed as in vivo, BALB/c-nude mice. The protocol: (§4) Experimental scheme: The tumor tissue mass were prepared and subcutaneously inoculated into the anterior right flank of BALB/c-nude mice. When the tumor volume expanded to 80-160 mm^3, a randomized grouping was performed, and a model control group and administration groups were set. The mice were administrated from the first day of grouping, wherein the administration dose was adjusted according to the latest weight measurement. The mice were administrated via tail vein injection at an administration volume of 10 μl/g and twice a week for consecutive 3 weeks. After grouping and administration, the effects of tumor growth and treatment on normal behaviors of animals, specifically including the activity of experimental animals, food intake and drinking status, weight gain or loss status, and other abnormal conditions in eyes, hair, etc., were monitored. After grouping and administration, the weight of mice was measured twice a week to calculate the rate of weight change; at the same time, the long diameter and short diameter of the tumor were measured with a vernier caliper, and the tumor volume, relative tumor proliferation rate, tumor volume inhibition rate and other indicators were calculated. The formula of tumor volume is TV=0.5 a×b^2, wherein a is the long diameter of a tumor and b is the short diameter of a tumor.

The test system of experiment [5] is CALU-3. The description is as above. The class given is in vivo, BALB/c-nude mice. The protocol: as §4
Experiment [6] relates to SPC-A1. The experiment is described as above. The following applies: for TGI: SPC-Al. It is filed as in vivo, BALB/c-nude mice. Here is the method:
as §4

The test system of experiment [7] is SKOV3 human ovarian cancer cells. The experiment in a line: Cell binding and endocytosis by flow cytometry. It is filed as cell-based. The following applies: 8 nmol/L, 37° C., 15-90 minutes, compared with DU145 and NCI-H460. Here is the method:
(§5) Sample information: Cy5-pep-20AK and Cy5-pep-20BK Cell lines: LNCaP human prostate cancer cells, Du145 human prostate cancer cells, SKOV3 human ovarian cancer cells and NCI-H460 human lung cancer cells
(§6) (1) Cell culture: the cells were digested with trypsin, collected and counted, and then the cells were added to several culture flasks containing a complete medium; the culture flasks were placed in an incubator at 37° C., 5% CO2 for culturing the cells, and finally about 5×10^6 cells were collected into a centrifuge tube. […]
(§7) (3) Washing and loading: the working solution was removed by centrifugation at 1000 rpm for 5 minutes, and the cells were washed 3 times with PBS, and an appropriate amount of PBS was added to suspend the cells to 1×10^6 cells/ml; Beckman CytoFLEX flow cytometer was turned on in advance to complete the startup cleaning process; and the cell samples were loaded successively, and the fluorescence of 10,000 living cells was read in the APC channel; all operations were performed avoiding light exposure.
(§8) (4) Data analysis: the absolute MFI (mean fluorescence intensity) of the APC fluorescence of each cell sample and the relative MFI of the relative blank control were obtained, and a data line graph was completed according to the relative MFI.
(Flow cytometry measures light scatter and fluorescence of single cells or particles in a stream.)

Experiment [8] has as its system LNCaP human prostate cancer cells. The experiment in a line: Cell binding and endocytosis by flow cytometry. The class given is cell-based. The following applies: 8 nmol/L, 37° C., 15-90 minutes, compared with DU145 and NCI-H460. Here is the method:
as §5, §6, §7, §8

For the compound `CC[C@@]1(O)C(=O)OCc2c1cc1n(c2=O)Cc2c-1nc1cc(F)c(C)c3c1c2[C@@H](NC(=O)COCNC(=O)CNC(=O)[C@H](Cc1ccccc1)NC(=O)CNC(=O)CNC(=O)CCCCCN1C(=O)CC(SC[C@H](NC(=O)[C@H](CCCCN)NC(=O)[C@H](CC(=O)O)NC(=O)[C@H](CC(=O)O)NC(=O)Cc2ccc(CNC(=O)NCCCC[C@H](NC(=O)N[C@@H](CCC(=O)O)C(=O)O)C(=O)O)cc2)C(=O)N[C@@H](CCCCNC(=O)CC[C@H](NC(=O)c2ccc(NCc4cnc5[nH]c(N)nc(=O)c5n4)cc2)C(=O)O)C(N)=O)C1=O)CC3` (stereo partly drawn) [CR19428], the negative logarithm of the IC50 (pIC50) (usually −log10 of the IC50, conventionally taken in molar units) in experiment [1] was 5.79; in experiment [2], 6.04; in experiment [3], 5.97. The “anti-tumor growth effect (in words)” value in experiment [4] (SCLC-21H CDX), in experiment [5] (CALU-3 CDX) and in experiment [6] (SPC-A1 CDX) was “obvious anti-tumor growth effect” in each case. The inhibition of tumour growth (TGI) (as a rule, the reduction of tumour growth relative to the control group) in experiment [4] (SCLC-21H, 50 mg/kg q2/w * 3) was 66%; in experiment [5] (CALU-3, 50 mg/kg q2/w * 3) it was 51%; in experiment [6] (50 mg/kg q2/w * 3), 75%; in experiment [6] (100 mg/kg q2/w * 3) it was 91%.
As to `CC1(C)C(/C=C/C=C/C=C2\N(CCCCCC(=O)NCCCCC(NC(=O)[C@H](CCCCN)NC(=O)[C@H](CC(=O)O)NC(=O)[C@H](CC(=O)O)NC(=O)Cc3ccc(CNC(=O)NCCCC[C@H](NC(=O)N[C@@H](CCC(=O)O)C(=O)O)C(=O)O)cc3)C(N)=O)c3ccc(S(=O)(=O)[O-])cc3C2(C)C)=[N+](CCCS(=O)(=O)O)c2ccc(S(=O)(=O)O)cc21` (stereo partly drawn) [Cy5-pep-20AK], the “binding and endocytosis (fluorescence intensity)” value was “moderate level of binding and endocytosis” in experiment [7]; “high level of binding and endocytosis” in experiment [8].
